Reference: ChEMBL document CHEMBL4177678, “Design, synthesis and in vitro anti-tuberculosis activity of benzo[6,7]cyclohepta[1,2-b]pyridine-1,2,3-triazole derivatives” (Bioorg Med Chem Lett, 2017)
Values after ≈ are worked out from the molar mass of the structure shown.

System: Mycobacterium tuberculosis
Assay: Antitubercular activity against Mycobacterium tuberculosis H37Rv ATCC 27294 after 28 days by two-fold serial dilution method
Format: functional
Conditions: H37Rv ATCC 27294, 672 h

Compound	MIC [µg/mL]
COc1ccc2cc(-c3cn(Cc4cc5c(nc4C)-c4cc(C)c(C)cc4CCC5)nn3)ccc2c1	25 (≈ 52.7 µM)
Cc1nc2c(cc1Cn1cc(-c3ccccc3)nn1)CCCc1ccccc1-2	25 (≈ 68.2 µM)
Cc1cc2c(cc1C)-c1nc(C)c(Cn3cc(-c4ccccn4)nn3)cc1CCC2	25 (≈ 63.2 µM)
CCCCCCc1cn(Cc2cc3c(nc2C)-c2cc(C)c(C)cc2CCC3)nn1	12.5 (≈ 31 µM)
Cc1cc2c(cc1C)-c1nc(C)c(Cn3cc(-c4cccnc4)nn3)cc1CCC2	6.25 (≈ 15.8 µM)
COc1cccc(-c2cn(Cc3cc4c(nc3C)-c3ccccc3CCC4)nn2)c1	> 25
Cc1nc2c(cc1Cn1cc(-c3cc4ccccc4c4ccccc34)nn1)CCCc1ccccc1-2	> 25
COc1cccc(-c2cn(Cc3cc4c(nc3C)-c3cc(C)c(C)cc3CCC4)nn2)c1	25 (≈ 58.9 µM)
Cc1cc2c(cc1C)-c1nc(C)c(Cn3cc(-c4cc5ccccc5c5ccccc45)nn3)cc1CCC2	1.56 (≈ 3.15 µM)
CC[C@@H](CO)NCCN[C@@H](CC)CO [ETHAMBUTOL]	3.13 (≈ 15.3 µM)
Cc1nc2c(cc1Cn1cc(-c3ccccn3)nn1)CCCc1ccccc1-2	12.5 (≈ 34 µM)
COc1ccc2cc(-c3cn(Cc4cc5c(nc4C)-c4ccccc4CCC5)nn3)ccc2c1	25 (≈ 56 µM)
CCCCCc1ccc(-c2cn(Cc3cc4c(nc3C)-c3cc(C)c(C)cc3CCC4)nn2)cc1	> 25
Cc1ccc(-c2cn(Cc3cc4c(nc3C)-c3cc(C)c(C)cc3CCC4)nn2)cc1	12.5 (≈ 30.6 µM)
CCCCCCc1cn(Cc2cc3c(nc2C)-c2ccccc2CCC3)nn1	1.56 (≈ 4.17 µM)
Cc1nc2c(cc1Cn1cc(-c3ccsc3)nn1)CCCc1ccccc1-2	12.5 (≈ 33.6 µM)
CCCCCc1ccc(-c2cn(Cc3cc4c(nc3C)-c3ccccc3CCC4)nn2)cc1	12.5 (≈ 28.6 µM)
Cc1ccc(-c2cn(Cc3cc4c(nc3C)-c3ccccc3CCC4)nn2)cc1	12.5 (≈ 32.9 µM)
Cc1cc2c(cc1C)-c1nc(C)c(Cn3cc(-c4ccsc4)nn3)cc1CCC2	12.5 (≈ 31.2 µM)
Cc1nc2c(cc1Cn1cc(-c3cccnc3)nn1)CCCc1ccccc1-2	6.25 (≈ 17 µM)
Cc1cc2c(cc1C)-c1nc(C)c(Cn3cc(-c4ccccc4)nn3)cc1CCC2	25 (≈ 63.4 µM)
NNC(=O)c1ccncc1 [ISONIAZID]	0.1 (≈ 0.729 µM)
CO[C@H]1/C=C/O[C@@]2(C)Oc3c(C)c(O)c4c(O)c(c(/C=N/N5CCN(C)CC5)c(O)c4c3C2=O)NC(=O)/C(C)=C\C=C\[C@H](C)[C@H](O)[C@@H](C)[C@@H](O)[C@@H](C)[C@H](OC(C)=O)[C@@H]1C [RIFAMPIN]	0.2 (≈ 0.243 µM)

System: HEK-293T
Assay: Cytotoxicity against human HEK293T cells assessed as reduction in cell viability at 50 ug/ml after 24 hrs by MTT assay
Format: cell-based
Conditions: not given

Compound	Activity
Cc1cc2c(cc1C)-c1nc(C)c(Cn3cc(-c4cc5ccccc5c5ccccc45)nn3)cc1CCC2	Non-Toxic
CCCCCCc1cn(Cc2cc3c(nc2C)-c2ccccc2CCC3)nn1	Non-Toxic
